Measured values from publication PMC8292346, “Dysfunction of the key ferroptosis-surveilling systems hypersensitizes mice to tubular necrosis during acute kidney injury” (Nature Communications, 2021).
Where “and” joins values, the source holds several entries; their conditions need not be identical. Equal entries are not always repeated. Entries after “also recorded” stand apart in the source; their conditions may differ.

How the values were obtained:
HT29 cells = test: TSZ-induced necroptosis, 7-AAD/annexin V flow cytometry; format: cell-based, human; conditions: Nec-1f 10 µM
Procedure: (§1) To induce necroptosis in a human cell line, HT29 cells were stimulated at the indicated time points with 20 ng/ml human TNFα (Biolegend), 1 μM SMAC-mimetics (Birinapant, Chemietek), and 20 μM zVAD-fmk (Selleckchem, herein referred to as zVAD). For the induction of necroptosis in NIH3T3 cells, cells were incubated with 20 ng/ml TNF-α and 20 μM zVAD for indicated time points. […] Cells were seeded in six-well plates or petri dishes. […] After indicated time points, cells were collected and prepared for flow cytometry, immunoblotting, and/or LDH release assays.
(§2) Cells were harvested and the pellets were washed twice in PBS and stained with 5 μl of 7-AAD (BD Biosciences) and 5 μl of annexin-V-FITC (BD Biosciences) added to 100 μl annexin-V binding buffer (BD Biosciences). After 15 min, cells were recorded on the LSRII with the FACS Diva 6.1.1 software (BD Biosciences) and subsequently analyzed with the FlowJo v10 software (Tree Star).

CD10-135 cells = test: FINs/ferroptocide, LDH release assay; format: cell-based, human; design: LDH release: unit not given here; conditions: for LDH release: Nec-1f 30 µM
HT1080 cells = test: CellTiter-Glo luminescent cell viability assay (ATP), dose-response; format: cell-based, human
Method in brief: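 Ferroptosis inducers and/or inhibitors were added to HT1080 cells 24 h after plating. Viability was read as ATP luminescence after adding CellTiter-Glo reagent, shaking 2 min and incubating 10 min at room temperature.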

[1] = Inhibited co-autoxidation of egg phosphatidylcholine liposomes and STY-BODIPY (radical-trapping antioxidant activity)
Procedure: Inhibitors were then added (5 μl aliquots) at desired concentrations to the appropriate wells followed by vigorous mixing. […] Experiments were performed in triplicate using HPLC grade solvents and kinetic data is given as an average of three independent measurements. […]

NIH3T3 cells [2] = test: Simultaneous ferroptosis and necroptosis (RSL3 plus TZ), 7-AAD/annexin V flow cytometry; format: cell-based, murine
Procedure: as §1, §2

C57Bl/6 N mice = test: Bilateral kidney ischemia-reperfusion injury, moderate model (30 min ischemia); format: in vivo, mouse
From the text: Otherwise, the two models are identical.

[3] = test system: primary murine tubular cells; test: RSL3-induced LDH release of primary kidney tubular cells; format: cell-based; conditions: RSL3 14 h
Procedure: The LDH release of cells or of freshly isolated kidney tubules was measured according to manufacturers’ instructions at indicated time points. In brief, an aliquot of the supernatant was taken and Lysis Solution was added for 45 min to induce maximal LDH release before another aliquot of the supernatant was taken. Subsequently, the supernatants were incubated with CytoTox 96® Reagent for 15 min protected from light at room temperature before adding Stop Solution. Absorbance was measured at 490 nm.
Generation, cell culture, and induction of cell death in primary murine tubular cells. Murine tubular cells were generated by outgrowth from isolated renal tubules (see above). Primary murine tubules were placed in six-well plates containing Dulbecco’s Modified Eagle Medium F-12 Nutrient Mixture without phenol red (DMEM/F12, Thermo Fisher), supplemented with 0.01 mg/ml recombinant human insulin, 5.5 μg/ml human transferrin, 0.005 μg/ml Na2SeO3 (ITS without linoleic acid, Sigma Aldrich), 50 nM hydrocortisone, 100 U/ml penicillin, and 100 μg/ml streptomycin (Pen/Strep, Thermo Fisher). After two days, the outgrown primary murine tubular cells were washed with PBS and a fresh medium was added. When the number of primary murine tubular cells reached approximately 50% confluence, the cells were removed from the six-well plates using Trypsin-EDTA (Thermo Fisher), washed with medium and a Ficoll Paque Plus (Sigma Aldrich) gradient was performed to remove any dead cells, and debris from the murine renal tubules. Cells were washed twice with PBS and seeded in six-well plates with medium. Once the number of grown cells reached approximately 50% confluence, they were washed with PBS and treated with type 2 FIN: RSL3 (also see Supplementary Table 2 for details). After 14 h, medium and cells were collected and prepared for LDH release assay. Images of the treated primary murine tubular cells were obtained using a 20×/0.30 PH1 objective on a Leica DMi1 microscope.

NIH3T3 cells [4] = test: Ferroptosis inducers (FINs)/ferroptocide, 7-AAD/annexin V flow cytometry; format: cell-based, murine; conditions: individual replicates
β2(h) = β2(h) (Homo sapiens, UniProt P07550); test: Off-target radioligand binding screen; conditions: read-out: β2(h) ($): inhibition of radioligand binding
H1(h) = H1(h) (Homo sapiens, UniProt P35367); test: Off-target radioligand binding screen; conditions: read-out: H1(h) ($): inhibition of radioligand binding
M1(h) = M1(h) (Homo sapiens, UniProt P11229); test: Off-target radioligand binding screen; conditions: read-out: M1(h) ($): inhibition of radioligand binding
[5] = Nec-1f - sham, individual animals
[6] = Nec-1f, 48 h after onset of reperfusion, individual animals
[7] = Nec-1f, 72 h after onset of reperfusion, individual animals
[8] = kidney IRI, 1.65 mg/kg i.p. 15 min before
[9] = mice, bilateral kidney IRI, Nec-1f 1.65 mg/kg i.p. 15 min before, individual animals
[10] = mice, kidney IRI, Nec-1f, individual animals

Sequence of β2(h) (P07550 whole entry): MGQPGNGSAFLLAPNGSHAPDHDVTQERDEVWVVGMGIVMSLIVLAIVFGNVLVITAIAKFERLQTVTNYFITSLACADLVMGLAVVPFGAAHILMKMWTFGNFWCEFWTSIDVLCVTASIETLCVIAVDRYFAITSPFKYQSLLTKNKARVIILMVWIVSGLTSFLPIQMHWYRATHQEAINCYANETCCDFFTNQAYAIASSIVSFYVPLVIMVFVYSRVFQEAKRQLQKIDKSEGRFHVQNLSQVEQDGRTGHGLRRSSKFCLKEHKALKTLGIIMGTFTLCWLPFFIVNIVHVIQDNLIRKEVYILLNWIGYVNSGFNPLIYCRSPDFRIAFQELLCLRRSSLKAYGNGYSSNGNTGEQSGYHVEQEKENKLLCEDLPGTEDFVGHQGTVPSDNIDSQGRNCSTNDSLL
Sequence of M1(h) (P11229 whole entry): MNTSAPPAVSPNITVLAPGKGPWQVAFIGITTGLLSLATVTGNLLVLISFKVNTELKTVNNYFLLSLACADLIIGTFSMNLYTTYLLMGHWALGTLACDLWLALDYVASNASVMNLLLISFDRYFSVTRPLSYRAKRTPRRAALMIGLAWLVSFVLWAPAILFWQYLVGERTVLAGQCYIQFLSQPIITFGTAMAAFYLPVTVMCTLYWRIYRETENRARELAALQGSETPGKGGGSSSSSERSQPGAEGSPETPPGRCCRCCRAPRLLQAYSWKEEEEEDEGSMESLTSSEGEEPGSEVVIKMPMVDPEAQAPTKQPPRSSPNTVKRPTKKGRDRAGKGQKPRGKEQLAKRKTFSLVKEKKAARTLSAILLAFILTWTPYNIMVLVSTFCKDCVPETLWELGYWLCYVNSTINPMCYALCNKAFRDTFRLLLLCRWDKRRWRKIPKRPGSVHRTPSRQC
Sequence of H1(h) (P35367 whole entry): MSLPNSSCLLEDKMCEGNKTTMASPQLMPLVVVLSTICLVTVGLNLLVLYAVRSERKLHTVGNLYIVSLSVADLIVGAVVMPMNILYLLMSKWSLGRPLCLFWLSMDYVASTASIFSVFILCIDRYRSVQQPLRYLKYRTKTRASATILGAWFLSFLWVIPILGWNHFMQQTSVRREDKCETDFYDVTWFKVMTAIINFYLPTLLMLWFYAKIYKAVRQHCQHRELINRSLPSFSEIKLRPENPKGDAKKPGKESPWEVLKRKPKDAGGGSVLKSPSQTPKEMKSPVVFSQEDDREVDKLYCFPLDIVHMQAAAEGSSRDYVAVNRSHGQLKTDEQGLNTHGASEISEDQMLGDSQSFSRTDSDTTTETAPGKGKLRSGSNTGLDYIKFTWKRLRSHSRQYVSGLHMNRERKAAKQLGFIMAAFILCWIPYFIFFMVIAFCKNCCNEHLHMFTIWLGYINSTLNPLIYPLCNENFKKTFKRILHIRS

SMILES: CN1C(=O)C(Cc2c[nH]c3c(Cl)cccc23)NC1=S (centres unmarked) [Nec-1f]
- 7-AAD/annexin V flow cytometry, source data of bar graph Fig2e (HT29 cells; HT29, TSZ (TNFα 20 ng/ml, birinapant 1 µM, zVAD-fmk 20 µM) 16 h): 80.1% and 85.8% and 92.9% and 83.9% and 82.2% and 61.2% and 88.8% and 88.1%
- Protection against TSZ-induced necroptosis (7-AAD/annexin V, words) (HT29 cells; HT29, TSZ): maintained double negativity
- LDH release (CD10-135 cells; CD10-135, FIN56 alone (FIN) or with Fer-1, Nec-1s): 25.01 and 21.5704 and 29.6875
- LDH release (CD10-135 cells; CD10-135, FINO2 alone (FIN) or with Fer-1, Nec-1s): 27.07 and 34.1078 and 34.3349
- LDH release (CD10-135 cells; CD10-135, RSL3 alone (FIN) or with Fer-1, Nec-1s): 36.35 and 26.8291
- LDH release (CD10-135 cells; CD10-135, erastin alone (FIN) or with Fer-1, Nec-1s): 25.13 and 17.5 and 32.5
- LDH release (CD10-135 cells; CD10-135, ferroptocide alone (FIN) or with Fer-1, Nec-1s): 89.05 and 90.3713
- Effect on FIN-induced LDH release (CD10-135 cells; CD10-135 cells): reversed
- ATP luminescence (CellTiterGlo) (HT1080 cells; HT1080 + Erastin, inhibitor concentration 0.01 (unit not given)): 6.81%
- ATP luminescence (CellTiterGlo) (HT1080 cells; HT1080 + Erastin, inhibitor concentration 0.1 (unit not given)): 7.52%
- ATP luminescence (CellTiterGlo) (HT1080 cells; HT1080 + Erastin, inhibitor concentration 1 (unit not given)): 8.325%
- ATP luminescence (CellTiterGlo) (HT1080 cells; HT1080 + Erastin, inhibitor concentration 10 (unit not given)): 21.5066%
- ATP luminescence (CellTiterGlo) (HT1080 cells; HT1080 + Erastin, inhibitor concentration 30 (unit not given)): 111.285%
- ATP luminescence (CellTiterGlo) (HT1080 cells; HT1080 + Ferroptocide, inhibitor concentration 0.01 (unit not given)): 1.591% and 1.035%
- ATP luminescence (CellTiterGlo) (HT1080 cells; HT1080 + Ferroptocide, inhibitor concentration 0.1 (unit not given)): 1.25% and 2.131%
- ATP luminescence (CellTiterGlo) (HT1080 cells; HT1080 + Ferroptocide, inhibitor concentration 1 (unit not given)): 5.941% and 7.943%
- ATP luminescence (CellTiterGlo) (HT1080 cells; HT1080 + Ferroptocide, inhibitor concentration 10 (unit not given)): 11.997% and 7.702%
- ATP luminescence (CellTiterGlo) (HT1080 cells; HT1080 + RSL3, inhibitor concentration 0.01 (unit not given)): 48.1449% and 58.3128%
- ATP luminescence (CellTiterGlo) (HT1080 cells; HT1080 + RSL3, inhibitor concentration 0.1 (unit not given)): 48.8384% and 72.7198%
- ATP luminescence (CellTiterGlo) (HT1080 cells; HT1080 + RSL3, inhibitor concentration 1 (unit not given)): 51.482% and 85.4435%
- ATP luminescence (CellTiterGlo) (HT1080 cells; HT1080 + RSL3, inhibitor concentration 10 (unit not given)): 49.7032% and 98.9558%
- ATP luminescence (CellTiterGlo) (HT1080 cells; HT1080 + RSL3, inhibitor concentration 30 (unit not given)): 46.9784% and 93.7693%
- RTA activity in co-autoxidation of egg phosphatidylcholine lipids in STY-BODIPY-embedded liposomes [1]: devoid of RTA activity
- ΔSTY-BODIPY ([1]; 2 µM Nec-1f, time 53820 s): -0.4045 µM
- ΔSTY-BODIPY ([1]; 2 µM Nec-1f, time 53880 s): -0.4072 µM
- ΔSTY-BODIPY ([1]; 2 µM Nec-1f, time 53940 s): -0.4054 µM
- ΔSTY-BODIPY ([1]; 2 µM Nec-1f, time 54000 s): -0.4034 µM
- ΔSTY-BODIPY ([1]; 10 µM Nec-1f, time 53820 s): -0.5158 µM
- ΔSTY-BODIPY ([1]; 10 µM Nec-1f, time 53880 s): -0.5141 µM
- ΔSTY-BODIPY ([1]; 10 µM Nec-1f, time 53940 s): -0.5142 µM
- ΔSTY-BODIPY ([1]; 10 µM Nec-1f, time 54000 s): -0.5122 µM
- Rescue from necrosis induced by RSL3 plus TZ (NIH3T3 cells [2]; NIH3T3, 16 h): Nec-1f does; also recorded: maintained cell viability
- 7-AAD/annexin V flow cytometry, source data of bar graph Fig3c (NIH3T3 cells [2]; NIH3T3, RSL3 (1.13 µM) + TZ 16 h with inhibitor): 75.7% and 76% and 68%
- Serum creatinine (C57Bl/6 N mice; [5]): 23 µmol/L and 17 µmol/L
- Serum urea (C57Bl/6 N mice; [5]): 5.5 mmol/L and 5.6 mmol/L
- Serum creatinine (C57Bl/6 N mice; [6]): 28 µmol/L and 95 µmol/L and 52 µmol/L and 60 µmol/L and 40 µmol/L and 74 µmol/L and 33 µmol/L and 35 µmol/L and 39 µmol/L
- Serum urea (C57Bl/6 N mice; [6]): 19.1 mmol/L and 76 mmol/L and 75 mmol/L and 43.6 mmol/L and 50.1 mmol/L and 32.1 mmol/L and 57 mmol/L and 22.5 mmol/L and 16.7 mmol/L and 34.1 mmol/L and 24.8 mmol/L
- Serum creatinine (C57Bl/6 N mice; [7]): 79 µmol/L and 31 µmol/L and 63 µmol/L and 46 µmol/L and 53 µmol/L and 44 µmol/L
- Serum urea (C57Bl/6 N mice; [7]): 30.9 mmol/L and 8.8 mmol/L and 20.2 mmol/L and 18.9 mmol/L and 37.3 mmol/L and 16.4 mmol/L
- 4HNE staining of renal tissue (C57Bl/6 N mice; [8]): attenuated
- Infiltration of macrophages (F4/80) in the renal medulla (C57Bl/6 N mice; [8]): significantly less infiltration
- Serum creatinine vs vehicle (C57Bl/6 N mice; [8]): lower than in the vehicle-treated mice
- Serum urea vs vehicle (C57Bl/6 N mice; [8]): lower than in the vehicle-treated mice
- Tubular damage vs vehicle (C57Bl/6 N mice; [8]): lower than in the vehicle-treated mice
- 4HNE score, arbitrary [0-3] (sheet FigS2d) (C57Bl/6 N mice; kidney IRI, column headed Nec-1f): 1.6 and 1.4
- 4HNE staining score, arbitrary [0-3] (C57Bl/6 N mice; [9]): 0.6 and 1.6 and 1.8 and 0.8 and 1.2
- Tubular damage score, arbitrary [0-10] (C57Bl/6 N mice; [9]): 5 and 7 and 4
- F4/80 positivity, quantitative (Fig6i) (C57Bl/6 N mice; [10]): 8.8 cells/field and 7.8 cells/field and 20.3 cells/field and 16.2 cells/field and 20.8 cells/field
- F4/80 positivity, quantitative (Fig6h) (C57Bl/6 N mice; [10]): 3.45 cells/field and 6.077 cells/field and 9.25 cells/field and 7.125 cells/field and 9.0625 cells/field
- LDH release ([3]; primary kidney tubular cells, alone (DMSO) or with Fer-1 or Nec-1f 30 µM): 29.82% and 33.38% and 28.13%
- Effect on RSL3-induced LDH release ([3]; primary renal tubular cells): prevented
- cells in 7-AAD/annexin V flow cytometry (FigS9b) (NIH3T3 cells [4]; Erastin-induced ferroptosis): 83.1% and 77.0% and 78.0% and 47.0%
- cells in 7-AAD/annexin V flow cytometry (FigS9b) (NIH3T3 cells [4]; FIN56-induced ferroptosis): 88.0% and 64.0%
- cells in 7-AAD/annexin V flow cytometry (FigS9b) (NIH3T3 cells [4]; FINO2-induced ferroptosis): 75.0% and 57.0%
- cells in 7-AAD/annexin V flow cytometry (FigS9b) (NIH3T3 cells [4]; Ferroptocide-induced cell death): 80.0% and 8.0%
- cells in 7-AAD/annexin V flow cytometry (FigS9b) (NIH3T3 cells [4]; RSL3-induced ferroptosis): 80.0% and 84.0%
- inhibition at 10 µM (β2(h)): 1.4%
- inhibition at 10 µM (H1(h)): 9.3%
- inhibition at 10 µM (M1(h)): -7.3%
